In PubChem BioAssay (NCI):
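Cultured in 96-well plates, cells were exposed to test compound for 48 hours across five concentrations. GI50 = concentration required for 50% inhibition of growth. TGI marks complete inhibition of growth.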

Columns and labels:
Experiment in all cases: DTP human tumour cell line panel, 48 h
[1] = tested on: 786-0 renal
[2] = tested on: A498 renal
[3] = tested on: A549 NSCLC
[4] = tested on: ACHN renal
[5] = tested on: BT-549 breast
[6] = tested on: CAKI-1 renal
[7] = tested on: CCRF-CEM leukemia
[8] = tested on: COLO 205 colon
[9] = tested on: DU-145 prostate
[10] = tested on: EKVX NSCLC
[11] = tested on: HCC-2998 colon
[12] = tested on: HCT-116 colon
[13] = tested on: HCT-15 colon
[14] = tested on: HL-60(TB) leukemia
[15] = tested on: HOP-62 NSCLC
[16] = tested on: HOP-92 NSCLC
[17] = tested on: HS 578T breast
[18] = tested on: HT29 colon
[19] = tested on: IGROV1 ovarian
[20] = tested on: K-562 leukemia
[21] = tested on: KM12 colon
[22] = tested on: LOX IMVI melanoma
[23] = tested on: M14 melanoma
[24] = tested on: MALME-3M melanoma
[25] = tested on: MCF7 breast
[26] = tested on: MDA-MB-231 breast
[27] = tested on: MDA-MB-435
[28] = tested on: MOLT-4 leukemia
[29] = tested on: NCI-H226 lung
[30] = tested on: NCI-H23 lung
[31] = tested on: NCI-H460 lung
[32] = tested on: NCI-H522 lung
[33] = tested on: NCI/ADR-RES ovarian
[34] = tested on: OVCAR-3 ovarian
[35] = tested on: OVCAR-4 ovarian
[36] = tested on: OVCAR-5 ovarian
[37] = tested on: OVCAR-8 ovarian
[38] = tested on: PC-3 prostate
[39] = tested on: RPMI-8226 leukemia
[40] = tested on: RXF 393 renal
[41] = tested on: SF-268 CNS
[42] = tested on: SF-295 CNS
[43] = tested on: SF-539 CNS
[44] = tested on: SK-MEL-28 melanoma
[45] = tested on: SK-MEL-5 melanoma
[46] = tested on: SK-OV-3 ovarian
[47] = tested on: SN12C renal
[48] = tested on: SNB-19 CNS
[49] = tested on: SNB-75 CNS
[50] = tested on: SR leukemia
[51] = tested on: SW-620 colon
[52] = tested on: T-47D breast
[53] = tested on: TK-10 renal
[54] = tested on: U251 CNS
[55] = tested on: UACC-257 melanoma
[56] = tested on: UACC-62 melanoma
[57] = tested on: UO-31 renal

Q: For O=C(Nc1cccc([N+](=O)[O-])c1)c1cccc(C(=O)Nc2cccc([N+](=O)[O-])c2)c1, which GI50 [1] is on record?
A: Its GI50 is 25.6 µM.

Q: And the TGI [1]?
A: The TGI was over 100 µM.

Q: And the GI50 [2]?
A: The GI50 was 20.2 µM.

Q: What about the TGI [2] of the same compound?
A: The TGI was 79.5 µM.

Q: And the GI50 [3]?
A: The GI50 was over 100 µM.

Q: What about the TGI [3] of the same compound?
A: The TGI was over 100 µM.

Q: And the GI50 [4]?
A: Its GI50 is over 100 µM.

Q: What about the TGI [4] of the same compound?
A: The TGI was over 100 µM.

Q: And the GI50 [5]?
A: Its GI50 is 9.05 µM.

Q: What about the TGI [5] of the same compound?
A: The TGI was over 100 µM.

Q: What about the GI50 [6] of the same compound?
A: Its GI50 is over 100 µM.

Q: And the TGI [6]?
A: Its TGI is over 100 µM.

Q: And the GI50 [7]?
A: The GI50 was over 100 µM.

Q: And the TGI [7]?
A: Its TGI is over 100 µM.

Q: What about the GI50 [8] of the same compound?
A: The GI50 was over 100 µM.

Q: And the TGI [8]?
A: The TGI was over 100 µM.

Q: What about the GI50 [9] of the same compound?
A: The GI50 was over 84.2 µM.

Q: What about the TGI [9] of the same compound?
A: The TGI was over 100 µM.

Q: What about the GI50 [10] of the same compound?
A: The GI50 was over 59.9 µM.

Q: And the TGI [10]?
A: Its TGI is over 100 µM.

Q: And the GI50 [11]?
A: The GI50 was over 100 µM.

Q: What about the TGI [11] of the same compound?
A: Its TGI is over 100 µM.

Q: What about the GI50 [12] of the same compound?
A: Its GI50 is 41.9 µM.

Q: What about the TGI [12] of the same compound?
A: Its TGI is over 100 µM.

Q: What about the GI50 [13] of the same compound?
A: The GI50 was over 100 µM.

Q: What about the TGI [13] of the same compound?
A: Its TGI is over 100 µM.

Q: What about the GI50 [14] of the same compound?
A: The GI50 was over 100 µM.

Q: What about the TGI [14] of the same compound?
A: Its TGI is over 100 µM.

Q: And the GI50 [15]?
A: Its GI50 is 21.9 µM.

Q: And the TGI [15]?
A: Its TGI is over 70.5 µM.

Q: And the GI50 [16]?
A: Its GI50 is 8.85 µM.

Q: And the TGI [16]?
A: Its TGI is 60.7 µM.

Q: And the GI50 [17]?
A: The GI50 was 7.5 µM.

Q: And the TGI [17]?
A: The TGI was over 30.7 µM.

Q: And the GI50 [18]?
A: Its GI50 is over 100 µM.

Q: And the TGI [18]?
A: The TGI was over 100 µM.

Q: And the GI50 [19]?
A: Its GI50 is 33.9 µM.

Q: And the TGI [19]?
A: Its TGI is over 100 µM.

Q: And the GI50 [20]?
A: Its GI50 is over 100 µM.

Q: What about the TGI [20] of the same compound?
A: The TGI was over 100 µM.

Q: And the GI50 [21]?
A: The GI50 was over 100 µM.

Q: And the TGI [21]?
A: The TGI was over 100 µM.

Q: And the GI50 [22]?
A: The GI50 was over 100 µM.

Q: And the TGI [22]?
A: The TGI was over 100 µM.

Q: What about the GI50 [23] of the same compound?
A: The GI50 was over 100 µM.

Q: What about the TGI [23] of the same compound?
A: The TGI was over 100 µM.

Q: And the GI50 [24]?
A: Its GI50 is over 100 µM.

Q: And the TGI [24]?
A: Its TGI is over 100 µM.

Q: And the GI50 [25]?
A: Its GI50 is over 100 µM.

Q: What about the TGI [25] of the same compound?
A: The TGI was over 100 µM.

Q: What about the GI50 [26] of the same compound?
A: Its GI50 is 12.1 µM.

Q: What about the TGI [26] of the same compound?
A: The TGI was over 100 µM.

Q: What about the GI50 [27] of the same compound?
A: Its GI50 is over 100 µM.

Q: What about the TGI [27] of the same compound?
A: Its TGI is over 100 µM.

Q: And the GI50 [28]?
A: The GI50 was over 100 µM.

Q: And the TGI [28]?
A: The TGI was over 100 µM.

Q: And the GI50 [29]?
A: Its GI50 is over 100 µM.

Q: And the TGI [29]?
A: Its TGI is over 100 µM.

Q: And the GI50 [30]?
A: The GI50 was over 72.4 µM.

Q: What about the TGI [30] of the same compound?
A: The TGI was over 100 µM.

Q: And the GI50 [31]?
A: The GI50 was over 61.9 µM.

Q: What about the TGI [31] of the same compound?
A: Its TGI is over 100 µM.

Q: What about the GI50 [32] of the same compound?
A: The GI50 was 3.32 µM.

Q: What about the TGI [32] of the same compound?
A: Its TGI is over 100 µM.

Q: What about the GI50 [33] of the same compound?
A: Its GI50 is over 100 µM.

Q: What about the TGI [33] of the same compound?
A: The TGI was over 100 µM.

Q: What about the GI50 [34] of the same compound?
A: The GI50 was over 100 µM.

Q: What about the TGI [34] of the same compound?
A: Its TGI is over 100 µM.

Q: What about the GI50 [35] of the same compound?
A: The GI50 was over 100 µM.

Q: And the TGI [35]?
A: The TGI was over 100 µM.

Q: What about the GI50 [36] of the same compound?
A: Its GI50 is over 100 µM.

Q: What about the TGI [36] of the same compound?
A: Its TGI is over 100 µM.

Q: And the GI50 [37]?
A: Its GI50 is 14 µM.

Q: And the TGI [37]?
A: The TGI was over 100 µM.

Q: What about the GI50 [38] of the same compound?
A: Its GI50 is over 100 µM.

Q: And the TGI [38]?
A: The TGI was over 100 µM.

Q: And the GI50 [39]?
A: The GI50 was over 100 µM.

Q: And the TGI [39]?
A: The TGI was over 100 µM.

Q: And the GI50 [40]?
A: The GI50 was 14.7 µM.

Q: And the TGI [40]?
A: The TGI was 38.8 µM.

Q: What about the GI50 [41] of the same compound?
A: Its GI50 is 5.22 µM.

Q: What about the TGI [41] of the same compound?
A: Its TGI is over 100 µM.

Q: What about the GI50 [42] of the same compound?
A: Its GI50 is 23.2 µM.

Q: And the TGI [42]?
A: Its TGI is over 90.4 µM.

Q: What about the GI50 [43] of the same compound?
A: The GI50 was 27.8 µM.

Q: And the TGI [43]?
A: Its TGI is over 100 µM.

Q: What about the GI50 [44] of the same compound?
A: The GI50 was over 100 µM.

Q: And the TGI [44]?
A: The TGI was over 100 µM.

Q: And the GI50 [45]?
A: Its GI50 is over 100 µM.

Q: What about the TGI [45] of the same compound?
A: Its TGI is over 100 µM.

Q: What about the GI50 [46] of the same compound?
A: Its GI50 is 13 µM.

Q: And the TGI [46]?
A: Its TGI is over 82.8 µM.

Q: And the GI50 [47]?
A: Its GI50 is 60.3 µM.

Q: What about the TGI [47] of the same compound?
A: The TGI was over 100 µM.

Q: What about the GI50 [48] of the same compound?
A: Its GI50 is 28.6 µM.

Q: And the TGI [48]?
A: Its TGI is over 100 µM.

Q: And the GI50 [49]?
A: Its GI50 is 8.42 µM.

Q: And the TGI [49]?
A: The TGI was 72.2 µM.

Q: And the GI50 [50]?
A: The GI50 was over 100 µM.

Q: What about the TGI [50] of the same compound?
A: Its TGI is over 100 µM.

Q: What about the GI50 [51] of the same compound?
A: The GI50 was over 100 µM.

Q: What about the TGI [51] of the same compound?
A: Its TGI is over 100 µM.

Q: What about the GI50 [52] of the same compound?
A: Its GI50 is 56.9 µM.

Q: What about the TGI [52] of the same compound?
A: Its TGI is over 100 µM.

Q: What about the GI50 [53] of the same compound?
A: Its GI50 is 9.71 µM.

Q: What about the TGI [53] of the same compound?
A: The TGI was over 61.3 µM.

Q: And the GI50 [54]?
A: Its GI50 is 7.15 µM.

Q: What about the TGI [54] of the same compound?
A: Its TGI is over 68.2 µM.

Q: What about the GI50 [55] of the same compound?
A: The GI50 was over 100 µM.

Q: And the TGI [55]?
A: The TGI was over 100 µM.

Q: What about the GI50 [56] of the same compound?
A: The GI50 was over 100 µM.

Q: And the TGI [56]?
A: Its TGI is over 100 µM.

Q: What about the GI50 [57] of the same compound?
A: The GI50 was over 100 µM.

Q: What about the TGI [57] of the same compound?
A: The TGI was over 100 µM.
